Consider one compound from patent US9695155B2, “Herbicidal substituted pyrimidinyloxy benzene compounds” (E. I. DU PONT DE NEMOURS AND COMPANY, priority 2013, dated 2017).

The structures appear in SMILES notation.

One test deals with wheat. The experiment in a line: Test A postemergence. Type of test: in vivo, Triticum aestivum. The settings on record: Triticum aestivum, post-emergence, 240 h. Put shortly:
(§1)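 Compounds in non-phytotoxic solvent with surfactant applied as soil spray preemergence, or postemergence to plants 2-10 cm at one- to two-leaf stage, in loam/sand. After approximately 10 days in greenhouse, injury rated visually versus untreated controls, 0 (no effect) to 100 (complete control).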

The next test has as its system soybean. The test can be described thus: Test C postemergence. The settings on record: Glycine max, post-emergence. Type of test: in vivo, Glycine max. An excerpt: (§2) Seeds of plant species selected from blackgrass (Alopecurus myosuroides), Italian ryegrass (Lolium multiflorum), wheat, winter (winter wheat, Triticum aestivum), galium (catchweed bedstraw, Galium aparine), corn (Zea mays), large (Lg) crabgrass (Digitaria sanguinalis), giant foxtail (Setaria faberii), johnsongrass (Sorghum halepense), lambsquarters (Chenopodium album), morningglory (Ipomoea coccinea), yellow nutsedge (Cyperus esculentus), pigweed (Amaranthus retroflexus), ragweed (common ragweed, Ambrosia elatior), soybean (Glycine max), barnyardgrass (Echinochloa crus-galli), oilseed rape (Brassica napus), waterhemp (common waterhemp, Amaranthus rudis), kochia (Kochia scoparia), wild oat (Avena fatua), surinam grass (Brachiaria decumbens), foxtail, green (green foxtail, Setaria viridis), goosegrass (Eleusine indica), bromegrass, downy (downy bromegrass, Bromus tectorum), nightshade (eastern black nightshade, Solanum ptycanthum), cocklebur (common cocklebur, Xanthium strumarium), cupgrass, woolly (woolly cupgrass, Eriochloa villosa), bermudagrass (Cynodon dactylon), sunflower, (common oilseed sunflower, Helianthus annuus), Russian thistle (Salsola kali), and velvetleaf (Abutilon theophrasti) were planted into a blend of loam soil and sand and treated preemergence with test chemicals formulated in a non-phytotoxic solvent mixture which included a surfactant.
(§3) At the same time, plants selected from these crop and weed species and also barley, winter (winter barley, Hordeum vulgare), windgrass (Apera spica-venti), chickweed (common chickweed, Stellaria media), deadnettle (henbit deadnettle, Lamium amplexicaule), and canarygrass (littleseed canarygrass, Phalaris minor) were planted in pots containing Redi-Earth® planting medium (Scotts Company, 14111 Scottslawn Road, Marysville, Ohio 43041) comprising spaghnum peat moss, vermiculite, wetting agent and starter nutrients and treated with postemergence applications of test chemicals formulated in the same manner. Plants ranged in height from 2 to 18 cm (1- to 4-leaf stage) for postemergence treatments. Treated plants and controls were maintained in a greenhouse for 13 to 15 days, after which time all species were compared to controls and visually evaluated. Plant response ratings, summarized in Table C, are based on a scale of 0 to 100 where 0 is no effect and 100 is complete control. A dash (-) response means no test result.

The test system of another test is rice. The experiment in a line: Test B flooded paddy test. The class given is in vivo, Oryza sativa. The settings on record: Oryza sativa; Flood, 250 g ai/ha; 0 to 100 scale where 0 is no effect and 100 is complete control; read-out: Plant response rating, Rice. Put shortly: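 Plants were grown to the 2-leaf stage, then pots were flooded to 3 cm above the soil and compounds were applied directly into the paddy water. That depth was held throughout, and after 13 to 15 days in the greenhouse injury was rated visually against controls on a 0–100 scale (0 no effect, 100 complete control).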

The test system of a further test is ragweed. The test can be described thus: Test C postemergence. The class given is in vivo, Ambrosia elatior. The conditions noted are these: Ambrosia artemisiifolia, post-emergence.
Text: as §2, §3

The next test concerns barnyardgrass. The experiment in a line: Test A preemergence. Type of test: in vivo, Echinochloa crus-galli. The settings on record: Echinochloa crus-galli, pre-emergence, 240 h, read-out: Barnyardgrass plant response rating. Put shortly:
as §1

Another test concerns morningglory. The experiment in a line: Test A postemergence. The settings on record: Ipomoea, post-emergence, 240 h. Type of test: in vivo, Ipomoea spp. The method in brief: as §1
The test system of another test is giant foxtail. The experiment in a line: Test C postemergence. Type of test: in vivo, Setaria faberii. The conditions noted are these: Setaria faberi, post-emergence.
Text: as §2, §3

The subject of a further test is blackgrass. The test can be described thus: Test C postemergence. The class given is in vivo, Alopecurus myosuroides. The conditions noted are these: Alopecurus myosuroides, post-emergence.
Text: as §2, §3

Regarding `Fc1cnc(Oc2ccccc2-n2cc(Br)cn2)nc1` [Compound 10, 2-[2-(4-bromo-1H-pyrazol-1-yl)phenoxy]-5-fluoropyrimidine], in the test with wheat (125 g ai/ha, 0 to 100 scale where 0 is no effect and 100 is complete control, read-out: Plant response rating, Wheat), the plant injury at 125 g/ha was determined as 0%. Also, the plant injury at 500 g/ha in the test on wheat (500 g ai/ha, 0 to 100 scale, 0 no effect, 100 complete control, read-out: Plant response rating Wheat) was 60%. In addition, the Soybean plant response rating (crop injury, 0-100 scale) at 125 g/ha in the test with soybean (125 g ai/ha, postemergence, read-out: Plant response rating (0 to 100), Soybean) turned out to be 85%. The compound also returned a Soybean plant response rating (crop injury, 0-100 scale) at 250 g/ha with soybean (250 g ai/ha, postemergence) of 95%. This compound also displayed a Soybean plant response rating (crop injury, 0-100 scale) at 31 g/ha in the test on soybean (Postemergence, 31 g ai/ha, scale 0 to 100 (0 no effect, 100 complete control), 13 to 15 days) of 50%. Also, in the test on soybean (Postemergence, 62 g ai/ha, scale 0 to 100 (0 no effect, 100 complete control)), the Soybean plant response rating (crop injury, 0-100 scale) at 62 g/ha stood at 75%. The plant injury at 250 g/ha in the test on rice turned out to be 0%. The pest or weed control at 125 g/ha is 55% with ragweed (125 g ai/ha, postemergence, read-out: Plant response rating (0 to 100), Ragweed); 60% in the test on barnyardgrass (125 g ai/ha, 0 to 100 scale where 0 is no effect and 100 is complete control); 90% in the test with morningglory (125 g ai/ha, 0 to 100 scale where 0 is no effect and 100 is complete control, read-out: Plant response rating, Morningglory); 5% in the test on giant foxtail (125 g ai/ha, postemergence, read-out: Plant response rating (0 to 100), Foxtail, Giant); 40% with blackgrass (125 g ai/ha, postemergence, read-out: Plant response rating (0 to 100), Blackgrass). For the same compound, the pest or weed control at 250 g/ha turned out to be 80% with ragweed (250 g ai/ha, postemergence, read-out: Plant response rating (0 to 100), Ragweed); 5% with giant foxtail (250 g ai/ha, postemergence, read-out: Plant response rating (0 to 100), Foxtail, Giant); 75% in the test on blackgrass (250 g ai/ha, postemergence, read-out: Plant response rating (0 to 100), Blackgrass). Moreover, the pest or weed control at 31 g/ha in the test on ragweed (Postemergence, 31 g ai/ha, scale 0 to 100 (0 no effect, 100 complete control), 13 to 15 days, read-out: Plant response rating, Ragweed) worked out at 50%; in the test with giant foxtail (Postemergence, 31 g ai/ha, scale 0 to 100 (0 no effect, 100 complete control), 13 to 15 days, read-out: Plant response rating, Foxtail, Giant) it was 0%; with blackgrass (Postemergence, 31 g ai/ha, scale 0 to 100 (0 no effect, 100 complete control), 13 to 15 days, read-out: Plant response rating, Blackgrass) it was 5%. Also, the pest or weed control at 62 g/ha in the test with ragweed (Postemergence, 62 g ai/ha, scale 0 to 100 (0 no effect, 100 complete control), read-out: Plant response rating, Ragweed) worked out at 50%; in the test with giant foxtail (Postemergence, 62 g ai/ha, scale 0 to 100 (0 no effect, 100 complete control), read-out: Plant response rating, Foxtail, Giant), 0%; in the test on blackgrass (Postemergence, 62 g ai/ha, scale 0 to 100 (0 no effect, 100 complete control), read-out: Plant response rating, Blackgrass), 5%. Further, the pest or weed control at 500 g/ha in the test with barnyardgrass (500 g ai/ha, 0 to 100 scale, 0 no effect, 100 complete control, approx. 10 days) is 90%; with morningglory (500 g ai/ha, 0 to 100 scale, 0 no effect, 100 complete control, read-out: Plant response rating Morningglory) it was 100%.
